From PubChem BioAssay (NCI)
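Step 1: Grow cells in 96-well plates. Step 2: Expose to compound for 48 hours at 5 concentrations. Step 3: Interpolate endpoints linearly; if unreached, use highest concentration. Abbreviation: GI50, concentration required for 50% inhibition of growth. TGI is the concentration that stops growth completely.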

Assays:
Experiment in all cases: NCI anticancer screen, dose series, 48 h
HCT-116 colon = test system: HCT-116 colon
ACHN renal = test system: ACHN renal
SK-OV-3 ovarian = test system: SK-OV-3 ovarian
SF-268 CNS = test system: SF-268 CNS
PC-3 prostate = test system: PC-3 prostate
SR leukemia = test system: SR leukemia
SK-MEL-5 melanoma = test system: SK-MEL-5 melanoma
IGROV1 ovarian = test system: IGROV1 ovarian
786-0 renal = test system: 786-0 renal
HOP-92 NSCLC = test system: HOP-92 NSCLC
NCI-H226 lung = test system: NCI-H226 lung
NCI-H23 lung = test system: NCI-H23 lung
MCF7 breast = test system: MCF7 breast
SK-MEL-28 melanoma = test system: SK-MEL-28 melanoma
RPMI-8226 leukemia = test system: RPMI-8226 leukemia
A549 NSCLC = test system: A549 NSCLC
K-562 leukemia = test system: K-562 leukemia
UACC-257 melanoma = test system: UACC-257 melanoma
A498 renal = test system: A498 renal
OVCAR-4 ovarian = test system: OVCAR-4 ovarian
CCRF-CEM leukemia = test system: CCRF-CEM leukemia
T-47D breast = test system: T-47D breast
SK-MEL-2 melanoma = test system: SK-MEL-2 melanoma
OVCAR-8 ovarian = test system: OVCAR-8 ovarian
NCI-H522 lung = test system: NCI-H522 lung
HOP-62 NSCLC = test system: HOP-62 NSCLC
SN12C renal = test system: SN12C renal
M14 melanoma = test system: M14 melanoma
BT-549 breast = test system: BT-549 breast
SF-539 CNS = test system: SF-539 CNS
HS 578T breast = test system: HS 578T breast
HCT-15 colon = test system: HCT-15 colon
UO-31 renal = test system: UO-31 renal
HCC-2998 colon = test system: HCC-2998 colon
DU-145 prostate = test system: DU-145 prostate
SW-620 colon = test system: SW-620 colon
TK-10 renal = test system: TK-10 renal
MDA-MB-435 = test system: MDA-MB-435
EKVX NSCLC = test system: EKVX NSCLC
COLO 205 colon = test system: COLO 205 colon
CAKI-1 renal = test system: CAKI-1 renal
OVCAR-3 ovarian = test system: OVCAR-3 ovarian
NCI/ADR-RES ovarian = test system: NCI/ADR-RES ovarian
NCI-H460 lung = test system: NCI-H460 lung
SNB-19 CNS = test system: SNB-19 CNS
U251 CNS = test system: U251 CNS
HL-60(TB) leukemia = test system: HL-60(TB) leukemia
MOLT-4 leukemia = test system: MOLT-4 leukemia
OVCAR-5 ovarian = test system: OVCAR-5 ovarian
KM12 colon = test system: KM12 colon
HT29 colon = test system: HT29 colon
UACC-62 melanoma = test system: UACC-62 melanoma
MALME-3M melanoma = test system: MALME-3M melanoma
RXF 393 renal = test system: RXF 393 renal
MDA-MB-231 breast = test system: MDA-MB-231 breast
SF-295 CNS = test system: SF-295 CNS
SNB-75 CNS = test system: SNB-75 CNS

`C1CN(SSN2CCOCC2)CCO1` gave a GI50 (HCT-116 colon) of 20 µM, a TGI (HCT-116 colon) of 40.6 µM and a GI50 (ACHN renal) of 81 µM. For the same molecule, the TGI (ACHN renal) was greater than 100 µM, the GI50 (SK-OV-3 ovarian) was greater than 100 µM and the TGI (SK-OV-3 ovarian) was greater than 100 µM. For the same molecule, the GI50 (SF-268 CNS) was 47.6 µM, the TGI (SF-268 CNS) was greater than 100 µM and the GI50 (PC-3 prostate) was 25 µM. It also gave a TGI (PC-3 prostate) greater than 100 µM, a GI50 (SR leukemia) of 48.9 µM and a TGI (SR leukemia) greater than 100 µM. It also gave a GI50 (SK-MEL-5 melanoma) of 41.1 µM, a TGI (SK-MEL-5 melanoma) greater than 100 µM and a GI50 (IGROV1 ovarian) of 70.7 µM. It also gave a TGI (IGROV1 ovarian) greater than 100 µM, a GI50 (786-0 renal) of 21 µM and a TGI (786-0 renal) of 37.1 µM. For the same molecule, the GI50 (HOP-92 NSCLC) was 15.7 µM, the TGI (HOP-92 NSCLC) was 89.2 µM and the GI50 (NCI-H226 lung) was greater than 100 µM. For the same molecule, the TGI (NCI-H226 lung) was greater than 100 µM, the GI50 (NCI-H23 lung) was 22.5 µM and the TGI (NCI-H23 lung) was 55.9 µM. For the same molecule, the GI50 (MCF7 breast) was 23.3 µM, the TGI (MCF7 breast) was 64.4 µM and the GI50 (SK-MEL-28 melanoma) was greater than 100 µM. The TGI (SK-MEL-28 melanoma) was greater than 100 µM, the GI50 (RPMI-8226 leukemia) was 27.4 µM and the TGI (RPMI-8226 leukemia) was greater than 100 µM. It also gave a GI50 (A549 NSCLC) of 78.6 µM, a TGI (A549 NSCLC) greater than 100 µM and a GI50 (K-562 leukemia) of 4.58 µM. It also gave a TGI (K-562 leukemia) greater than 100 µM, a GI50 (UACC-257 melanoma) of 62.8 µM and a TGI (UACC-257 melanoma) greater than 100 µM. The GI50 (A498 renal) was greater than 100 µM, the TGI (A498 renal) was greater than 100 µM and the GI50 (OVCAR-4 ovarian) was 39.6 µM. It also gave a TGI (OVCAR-4 ovarian) greater than 100 µM, a GI50 (CCRF-CEM leukemia) of 43.9 µM and a TGI (CCRF-CEM leukemia) greater than 100 µM. The GI50 (T-47D breast) was 45 µM, the TGI (T-47D breast) was greater than 100 µM and the GI50 (SK-MEL-2 melanoma) was greater than 100 µM. The TGI (SK-MEL-2 melanoma) was greater than 100 µM, the GI50 (OVCAR-8 ovarian) was 52.1 µM and the TGI (OVCAR-8 ovarian) was greater than 100 µM. It also gave a GI50 (NCI-H522 lung) of 22.2 µM, a TGI (NCI-H522 lung) of 64.8 µM and a GI50 (HOP-62 NSCLC) of 78.5 µM. It also gave a TGI (HOP-62 NSCLC) greater than 100 µM, a GI50 (SN12C renal) of 26.6 µM and a TGI (SN12C renal) of 77.8 µM. It also gave a GI50 (M14 melanoma) of 20.6 µM, a TGI (M14 melanoma) of 48.9 µM and a GI50 (BT-549 breast) of 30 µM. It also gave a TGI (BT-549 breast) greater than 100 µM, a GI50 (SF-539 CNS) of 24.3 µM and a TGI (SF-539 CNS) of 80.7 µM. The GI50 (HS 578T breast) was 30.3 µM, the TGI (HS 578T breast) was greater than 100 µM and the GI50 (HCT-15 colon) was 35.6 µM. It also gave a TGI (HCT-15 colon) greater than 100 µM, a GI50 (UO-31 renal) of 49.5 µM and a TGI (UO-31 renal) greater than 100 µM. It also gave a GI50 (HCC-2998 colon) greater than 100 µM, a TGI (HCC-2998 colon) greater than 100 µM and a GI50 (DU-145 prostate) greater than 100 µM. It also gave a TGI (DU-145 prostate) greater than 100 µM, a GI50 (SW-620 colon) of 19.4 µM and a TGI (SW-620 colon) of 42 µM. It also gave a GI50 (TK-10 renal) greater than 100 µM, a TGI (TK-10 renal) greater than 100 µM and a GI50 (MDA-MB-435) of 33.8 µM. The TGI (MDA-MB-435) was greater than 100 µM, the GI50 (EKVX NSCLC) was greater than 100 µM and the TGI (EKVX NSCLC) was greater than 100 µM. For the same molecule, the GI50 (COLO 205 colon) was 25 µM, the TGI (COLO 205 colon) was 64 µM and the GI50 (CAKI-1 renal) was 33.7 µM. The TGI (CAKI-1 renal) was greater than 100 µM, the GI50 (OVCAR-3 ovarian) was 32.3 µM and the TGI (OVCAR-3 ovarian) was 89.2 µM. For the same molecule, the GI50 (NCI/ADR-RES ovarian) was 35.3 µM, the TGI (NCI/ADR-RES ovarian) was greater than 100 µM and the GI50 (NCI-H460 lung) was 28.3 µM. The TGI (NCI-H460 lung) was greater than 100 µM, the GI50 (SNB-19 CNS) was greater than 100 µM and the TGI (SNB-19 CNS) was greater than 100 µM. For the same molecule, the GI50 (U251 CNS) was 33.6 µM, the TGI (U251 CNS) was greater than 100 µM and the GI50 (HL-60(TB) leukemia) was 32.2 µM. The TGI (HL-60(TB) leukemia) was greater than 100 µM, the GI50 (MOLT-4 leukemia) was 47.3 µM and the TGI (MOLT-4 leukemia) was greater than 100 µM. It also gave a GI50 (OVCAR-5 ovarian) of 39 µM, a TGI (OVCAR-5 ovarian) greater than 100 µM and a GI50 (KM12 colon) of 43.6 µM. It also gave a TGI (KM12 colon) greater than 100 µM, a GI50 (HT29 colon) of 19.9 µM and a TGI (HT29 colon) of 43.1 µM. The GI50 (UACC-62 melanoma) was 58.7 µM, the TGI (UACC-62 melanoma) was greater than 100 µM and the GI50 (MALME-3M melanoma) was 53.6 µM. The TGI (MALME-3M melanoma) was greater than 100 µM, the GI50 (RXF 393 renal) was 21.8 µM and the TGI (RXF 393 renal) was 41.4 µM. For the same molecule, the GI50 (MDA-MB-231 breast) was 92.8 µM, the TGI (MDA-MB-231 breast) was greater than 100 µM and the GI50 (SF-295 CNS) was 32.4 µM. It also gave a TGI (SF-295 CNS) greater than 100 µM, a GI50 (SNB-75 CNS) of 44.1 µM and a TGI (SNB-75 CNS) greater than 100 µM.
